Measured values from paper PMC5889738 (Biomaterials, 2018).

Tested on: OCI-AML2 cells
Assay: flow cytometry of apoptosis and live-dead cell staining
Format: cell-based, human
Conditions: OCI-AML2, 6 μM, 48 h

COc1ccc(C2=N[C@@H](c3ccc(Cl)cc3)[C@@H](c3ccc(Cl)cc3)N2C(=O)N2CCNC(=O)C2)c(OC(C)C)c1 [Nutlin-3]
apoptosis / sensitivity of OCI-AML2: significantly less sensitive
